Experimental data from patent US5217990A, “Use of macrolactones as anti-allergics” (Boehringer Mannheim GmbH, priority 1989, dated 1993).
Like-named read-outs stand apart in the source and are kept apart here.

Key:
[1] = system: guinea pig lung parenchyma strips; experiment: Inhibition of the antigen-caused constriction of passively sensitised guinea pig lung parenchyma strips in vitro (organ bath); parameters: key to R = relaxation: R: relaxation; settings: for inhibition at 10 µg/mL / inhibition at 40 µg/mL: Cavia porcellus
Method: As further detection for the anti-allergic action, there was investigated the inhibition of the antigen-caused constriction of passive sensitised guinea pig lung parenchyma strips in vitro.
Inhibition of the Antigen-Caused Construction of Passively Sensitised Guinea Pig Lung Parenchyma Strips in Vitro (Organ Bath)
For the in vitro investigation of the compounds according to the invention, there was measured the inhibition of the antigen-caused constriction on passively sensitised guinea pig lung parenchyma strips, as described in the following.
Pirbright white guinea pigs were stunned by neck blow and exsanguinated. The lungs were rinsed in situ substantially free of blood with Krebs buffer, pH 7.4.
Subsequently, the lung was removed, cut up into strips (about 20×4×4 mm) and the strips passively sensitised for 1 hour at room temperature with a 1:50 dilution of a homologous anti-ovalbumin antiserum and then washed with Krebs buffer 1×.
The antiserum had been previously produced in guinea pigs of the same strain according to Davies G. E., T. P. Johnstone (Quantitative studies on anaphylaxis in guinea pigs passively sensitised with homologous antibody; Inter. Arch. 41, 648-654 (1971)) by repeated injection of ovalbumin (2×crystallised) with the addition of complete Freund's adjuvant.
Up to its use, the antiserum was stored undiluted at -18° C.
Subsequently, the lung strips were suspended individually in 10 ml. waterbaths with a prestressing of 1.2 g on an isometric measurement recorder.
Thereafter, the waterbaths were filled with Krebs buffer and continuously gassed at 37° C. with O2 (95%) and CO2 (5%).
The constructions of the lung strips were recorded on a disc via an amplifier.
After 30 minutes acclimatisation phase, histamine control spasms were produced for the recognition of the reaction ability of the organ pieces, washed, subsequently the test substance pre-incubated for 20 minutes at 37° C. and thereafter the ovalbumin-caused constriction initiated.
The inhibition actions of the compounds according to the invention were expressed as percentage reduction of the constriction amplitude of the "samples with test substance" in comparison with the "untreated control constrictions".

[2] = system: peripheral human leukocytes; experiment: Inhibition of anti-IgE-induced proteinase liberation from peripheral human leukocytes; format: cell-based
Excerpt: (§1) For the detection of the anti-allergic action, there was used the inhibition of the proteinase liberation from peripheral human leukocytes induced by anti-IgE antibodies (Wilhelmset et al. XII Congress Europ. Acad. Allergology Clin. Immunology, Rome, Sep. 25--3), 1983, as well as DE-Al-34 46 714) or of the histamine liberation in an analogous process according to a further development of the method of R. P. Siraganian and W. A. Hook (Manual of Clinical Immunology, 2nd edition, 1980, pub. N. R. Rose and H. Friedman, Am. Soc. for Microbiology, pages 808 to 821).
(§2) Description of the Test System for the Testing for Mediator Liberation Inhibition from Human Leukocytes in Vitro
(§3) The liberation of proteinase on isolated human leukocytes is initiated by stimulation with anti-IgE antibodies (IgE-mediated mediator liberation from basophilic granulocytes). The intensity of this liberation reaction is determined by substrate addition (chromozyme TH) and photometric measurement in that the colour intensity of the samples±inhibitor addition are compared.
(§4) Buffy-coat cells=concentrated cell suspension from blood preserve.
(§5) In the following Table I are reproduced the inhibition values of the anti-IgE-induced liberation of histamine and proteinase from peripheral human leukocytes. As comparison substance, there was used the known degranulation inhibitor theophylline.

plant growth = settings: cited from earlier work
[3] = system: peripheral human leukocytes; experiment: Inhibition of anti-IgE-induced histamine liberation from peripheral human leukocytes; format: cell-based
Excerpt: as §1, §2, §3, §4, §5

[4] = system: lettuce seeds (Lactuca sativa); settings: cited from earlier work
[5] = substance 10.00 mcg/ml, A = histamine 1.0 mcg/ml, read-out: Inhibition of constriction (percentage reduction of the constriction amplitude), spasmogen A
[6] = substance 10.00 mcg/ml, B = ovalbumin 0.1 mcg/ml, read-out: Inhibition of constriction (percentage reduction of the constriction amplitude), spasmogen B
[7] = substance 10.00 mcg/ml, C = glucose 1.16 %, read-out: Inhibition of constriction (percentage reduction of the constriction amplitude), spasmogen C
[8] = substance 10.00 mcg/ml, D = ovalbumin 1.0 mcg/ml, read-out: Inhibition of constriction (percentage reduction of the constriction amplitude), spasmogen D
[9] = substance 40.00 mcg/ml, A = histamine 1.0 mcg/ml, read-out: Inhibition of constriction (percentage reduction of the constriction amplitude), spasmogen A
[10] = substance 40.00 mcg/ml, B = ovalbumin 0.1 mcg/ml, read-out: Inhibition of constriction (percentage reduction of the constriction amplitude), spasmogen B
[11] = substance 40.00 mcg/ml, C = glucose 1.16 %, read-out: Inhibition of constriction (percentage reduction of the constriction amplitude), spasmogen C
[12] = substance 40.00 mcg/ml, D = ovalbumin 1.0 mcg/ml, read-out: Inhibition of constriction (percentage reduction of the constriction amplitude), spasmogen D
[13] = Homo sapiens, Leukocyte, conc. 2 μg/ml
[14] = Homo sapiens, Leukocyte, conc. 10 μg/ml
[15] = substance 10.00 mcg/ml, A = histamine 1.0 mcg/ml
[16] = substance 10.00 mcg/ml, B = ovalbumin 0.1 mcg/ml
[17] = substance 10.00 mcg/ml, C = glucose 1.16 %
[18] = substance 10.00 mcg/ml, D = ovalbumin 1.0 mcg/ml
[19] = substance 40.00 mcg/ml, A = histamine 1.0 mcg/ml
[20] = substance 40.00 mcg/ml, B = ovalbumin 0.1 mcg/ml
[21] = substance 40.00 mcg/ml, C = glucose 1.16 %
[22] = substance 40.00 mcg/ml, D = ovalbumin 1.0 mcg/ml
[23] = Homo sapiens, Leukocyte, conc. 90 μg/ml

CC1CCCCCCC(=O)/C=C/C(=O)O1 (stereo not drawn) [patulolide A]
inhibition at 10 µg/mL [1, 5]: 23%
inhibition at 10 µg/mL [1, 6]: 35%
inhibition at 10 µg/mL [1, 7]: 35%
inhibition at 10 µg/mL [1, 8]: 35%
inhibition at 40 µg/mL [1, 9]: 21%
inhibition at 40 µg/mL [1, 10]: 51%
inhibition at 40 µg/mL [1, 11]: 53%
inhibition at 40 µg/mL [1, 12]: 30%
inhibition at 2 µg/mL [2, 13]: 46%
inhibition at 10 µg/mL [2, 14]: 99%
plant growth inhibition (plant growth): plant growth inhibiting
inhibition at 2 µg/mL [3, 13]: 44%
inhibition at 10 µg/mL [3, 14]: 100%

C[C@@H]1CCCCC[C@H](O)[C@H](O)/C=C/C(=O)O1 [cladospolide A]
Inhibition of constriction (percentage reduction of the constriction amplitude), spasmogen A [1, 15]: -5%
Inhibition of constriction (percentage reduction of the constriction amplitude), spasmogen B [1, 16]: -50%
Inhibition of constriction (percentage reduction of the constriction amplitude), spasmogen C [1, 17]: -85%
Inhibition of constriction (percentage reduction of the constriction amplitude), spasmogen D [1, 18]: -76%
Inhibition of constriction (percentage reduction of the constriction amplitude), spasmogen A [1, 19]: 16%
Inhibition of constriction (percentage reduction of the constriction amplitude), spasmogen B [1, 20]: 34%
Inhibition of constriction (percentage reduction of the constriction amplitude), spasmogen C [1, 21]: 33%
Inhibition of constriction (percentage reduction of the constriction amplitude), spasmogen D [1, 22]: 24%
% inhibition proteinase ([2]; conc. 2 μg/ml): 5%
% inhibition proteinase ([2]; conc. 10 μg/ml): 46%
% inhibition histamine ([3]; conc. 2 μg/ml): 8%
% inhibition histamine ([3]; conc. 10 μg/ml): 44%
action on the root growth of lettuce seeds [4]: weakly inhibitingly

CC(=O)OC1C=CC(=O)OC(C)CCCCCC1OC(C)=O (stereo not drawn) [diacetylcladospolide A, Diacetylcladospolide A]
inhibition at 40 µg/mL [1, 9]: 6%
inhibition at 40 µg/mL [1, 10]: 44%
inhibition at 40 µg/mL [1, 11]: 45%
inhibition at 40 µg/mL [1, 12]: 46%
inhibition at 2 µg/mL [2, 13]: 14%
inhibition at 10 µg/mL [2, 14]: 96%
inhibition at 2 µg/mL [3, 13]: 17%
inhibition at 10 µg/mL [3, 14]: 92%

C[C@H]1CCCCC[C@H](O)[C@@H](O)/C=C\C(=O)O1 [cladospolide B]
action on the root growth of lettuce seeds [4]: promotingly

C[C@@H]1CCCCCC[C@H](O)/C=C\C(=O)O1 [patulolide C]
Inhibition of constriction (percentage reduction of the constriction amplitude), spasmogen A [1, 15]: -38%
Inhibition of constriction (percentage reduction of the constriction amplitude), spasmogen B [1, 16]: -35%
Inhibition of constriction (percentage reduction of the constriction amplitude), spasmogen C [1, 17]: -98%
Inhibition of constriction (percentage reduction of the constriction amplitude), spasmogen D [1, 18]: -26%
R = relaxation ([1]; substance 40.00 mcg/ml): R
Inhibition of constriction (percentage reduction of the constriction amplitude), spasmogen A [1, 19]: -24%
Inhibition of constriction (percentage reduction of the constriction amplitude), spasmogen B [1, 20]: -40%
Inhibition of constriction (percentage reduction of the constriction amplitude), spasmogen C [1, 21]: -36%
Inhibition of constriction (percentage reduction of the constriction amplitude), spasmogen D [1, 22]: -33%
plant growth inhibition (plant growth): plant growth inhibiting

Cn1c(=O)c2[nH]cnc2n(C)c1=O [theophylline, reference compound]
inhibition at 90 µg/mL [2, 23]: 70%
inhibition at 90 µg/mL [3, 23]: 72%

CC1CCCCCCC(=O)/C=C\C(=O)O1 (stereo not drawn) [patulolide B]
inhibition at 10 µg/mL [1, 5]: 5%
inhibition at 10 µg/mL [1, 6]: 54%
inhibition at 10 µg/mL [1, 7]: 47%
inhibition at 10 µg/mL [1, 8]: 51%
inhibition at 40 µg/mL [1, 9]: 3%
inhibition at 40 µg/mL [1, 10]: 95%
inhibition at 40 µg/mL [1, 11]: 93%
inhibition at 40 µg/mL [1, 12]: 93%
inhibition at 2 µg/mL [2, 13]: 63%
inhibition at 10 µg/mL [2, 14]: 99%
plant growth inhibition (plant growth): plant growth inhibiting
inhibition at 2 µg/mL [3, 13]: 57%
inhibition at 10 µg/mL [3, 14]: 100%
